Results as given in US8022043B2, “Ceramide derivatives as modulators of immunity and autoimmunity” (Albert Einstein College of Medicine of Yeshiva University, priority 2004, dated 2011).

Columns and labels:
[1] = tested on: Bulk splenocytes from C57BL/6 mice; experiment: Cytokine response of splenocyte cultures (IL-4 and IFNγ ELISA); type: cell-based; design: IL-4 levels compared with DB01-1: dose or concentration left out as unconfirmed; conditions: in vitro splenocyte cultures
[2] = tested on: Bulk splenocytes from C57BL/6 mice; experiment: Splenocyte proliferation assay (3H-thymidine incorporation); type: cell-based; conditions: FIG. 5D
Protocol: The results were obtained using a splenocyte proliferation assay according to the following procedure: Bulk splenocytes from C57BL/6 mice were plated at 300,000 per well in 96-well flat-bottom tissue culture plates with the indicated ceramide-like glycolipid diluted in complete medium to the concentrations shown. After 48 h at 37° C., the plate wells were pulsed with 20 microliters of medium containing 50 microCi/ml ^3H-thymidine and incubated for a further 18 h. Cell proliferation was estimated by harvesting pulsed cells onto 96-well filtermats and scintillation counting on a 1450 Microbeta Trilux instrument (Wallac/Perkin Elmer, Boston, Mass.).

NK T hybridoma DN32.D3 [3] = experiment: Murine NK T cell hybridoma stimulation assay (IL-2 release), RMA-S.mCD1d as APC; type: cell-based, mouse; conditions: presented by RMA-S/CD1d cells
Protocol: FIG. 5. […] NK T hybridoma DN32.D3 was cultured with CD1d-transfected RMA-S cells in microtiter plate wells. Each ceramide-like glycolipid was titrated over a concentration range from 0.5-500 nM, and supernatants were harvested after 24 hours for measurement of IL-2 release. Units of activity were calculated as the reciprocal of the concentration of ceramide-like glycolipid required to give a half maximal release of IL-2, and all values were normalized to the activity of KRN7000 (defined as 1 Unit). The dotted line indicates the level of activity for KRN7000. The structures of two ceramide-like glycolipids with markedly elevated activity relative to KRN7000 are shown.
The ability of the compounds to activate NK T cell hybridomas in the presence of various types of cells expressing CD1d reported in FIG. 5A was determined using a murine NK T cell hybridoma stimulation assay. […] Relative potencies of the ceramide-like glycolipids were calculated from the reciprocal effective concentrations at half-maximal response (1/EC50), and expressed as units by normalization to the observed potency for KRN7000.
IL-2 production by NK T hybridoma DN32D3 in response to eight selected ceramide-like glycolipids, was determined using three different cell types as antigen presenting cells. […]

NK T hybridoma DN32.D3 [4] = experiment: Murine NK T cell hybridoma stimulation assay (IL-2 release), HeLa.hCD1d as APC; type: cell-based, mouse
Protocol: (§1) The ability of the compounds to activate NK T cell hybridomas in the presence of various types of cells expressing CD1d reported in FIG. 5A was determined using a murine NK T cell hybridoma stimulation assay. CD1d-transfected RMA-S cells were plated at 50,000 cells/well in flat-bottom tissue culture plates in 100 microliters complete medium containing varying concentrations of ceramide-like glycolipids for 6 h at 37° C. The plates were then centrifuged (430 g, 3 min), and cells washed with PBS three times. Fifty thousand NKT hybridoma cells (clone DN3A4.1-2) were then added in 100 microliters of medium for a 12 h stimulation. Cell-free supernatants were collected at the end of incubation and assayed for IL-2 by standard capture ELISA. Relative potencies of the ceramide-like glycolipids were calculated from the reciprocal effective concentrations at half-maximal response (1/EC50), and expressed as units by normalization to the observed potency for KRN7000.
(§2) IL-2 production by NK T hybridoma DN32D3 in response to eight selected ceramide-like glycolipids, was determined using three different cell types as antigen presenting cells. RMA-S.mCD1d are a mouse lymphoma line that has been transfected to express murine CD1d. JAWS II is a mouse dendritic cell line that naturally expresses mouse CD1d. HeLa.hCD1d is a human cervical carcinoma cell line that has been transfected to express human CD1d. […]

NK T hybridoma DN32.D3 [5] = experiment: Murine NK T cell hybridoma stimulation assay (IL-2 release), JAWS II as APC; type: cell-based, mouse; conditions: dendritic cell line JAWS-II as antigen presenting cell
Protocol: as §1, §2

iNKT cells = experiment: In vitro cytokine modulation, murine cell assay system; type: cell-based; conditions: for in vitro activity at modulating cytokines: murine cell assay system
Description: The term iNKT cells, as used herein, mean the specific subset of CD1d-dependent T cells that expresses the invariant TCRα chain rearrangement consisting of Vα14-Jα18 in mice, and Vα24-Jα18 in humans. These cells are uniformly reactive to α-galactosylceramides presented by CD1d. These cells are also referred to as “Type 1” NKT cells, and the distinction between the different types of NKT cells and the nomenclature relating to this are summarized in the publication by Godfrey et al., Nat Rev Immunol. 2004 March; 4(3):231-7. Methods for determining cytokine production by iNKT cells in response to CD1d-presented glycolipids for determination of strong or weak agonist activity are described in Yu K O A, Im J S, Molano A, Dutronc Y, Illarionov P A, Forestier C, Fujiwara N, Arias I, Miyake S, Yamamura T, Chang Y-T, Besra G S, Porcelli S A, Modulation of CD1d-restricted NKT cell responses using N-acyl variants of α-galactosylceramides, Proc. Nat. Acad. Sci. (USA), 102:3383-8 (2005), see also Godfrey D I et al., Nat Rev Immunol. 2004 March; 4(3):231-7.

NK T cells = experiment: NK T cell activation screens (Example, FIG. 5 and Table 1); type: cell-based; conditions: see Example
Description: Using these methods, we produced more than 60 novel amino substituted analogues of KRN7000. These were screened in a functional assay that assessed the ability of the compounds to activate NK T cell hybridomas in the presence of various types of cells expressing CD1d, or in the presence of recombinant CD1d proteins bound to the tissue culture plate surface (FIG. 5).

[6] = tested on: mouse model of experimental allergic encephalomyelitis (EAE); conditions: compared with KRN7000; cited from earlier work
mice = conditions: administered in vivo to mice; cited from earlier work
C57BL/6 mice = experiment: Serum IL-4 and IFNγ after a single i.p. injection; type: in vivo
Protocol: Serum levels of L-4 and IFNγ after a single injection of DB01-1, DB03-4, or DB03-5 are shown. C57BL/6 mice (11-13 weeks old) were given a single i.p. injection of 4.8 nanomoles of the compounds or phosphate buffered saline (PBS)/vehicle control. Serum cytokine levels were measured 2 and 20 hours later by capture ELISA. Bars show means of three mice, with standard deviation. Note that DB01-1 has nearly identical structure to KRN7000 (C24 fatty acid as compared to C26) and has activity that is indistinguishable from KRN7000 in multiple bioassays. We use DB01-1 as a “KRN7000 mimic” because it has been synthesized by our group and is readily available for our studies, and KRN7000 was unavailable due to license restrictions.
A most intriguing property of KRN7000 analogues is that in some cases they may elicit immune responses that are qualitatively different from those that occur following stimulation with the parent compound. […] This selective activation of IL-4 production by NK T cells was proposed to be the basis for the enhanced therapeutic effects of OCH in the EAE model of central nervous system autoimmune disease. We have observed a similar in vivo effect on the nature of the NK T cell response using several of our ceramide-like glycolipids. […] These responses are similar to those seen for DB01-1, an analogue that is structurally almost identical to KRN7000 (C24 fatty acid instead of C26, otherwise identical) and indistinguishable in terms of its activity in our hands. […] This selective IL-4 induction is virtually identical to that reported for the OCH analogue, and thus illustrates the potential for amino substituted analogues of KRN7000 to induce qualitatively different immunomodulatory effects in vivo. The results reported in FIG. 9 were obtained by measuring serum levels of IL-4 and IFNγ after administering a single injection of […], DB03-4, or DB03-5 to C57BL/6 mice. C57BL/6 mice (11-13 weeks old) were given a single i.p. injection of 4.8 nanomoles of the ceramide-like glycolipids or PBS/vehicle control. Serum cytokine levels were measured 2 and 20 hours later by capture ELISA. Bars show means of three mice, with standard deviation.
For experiments involving in vivo treatment of mice with the ceramide-like glycolipids, the ceramide-like glycolipids were administered by i.p. or i.v. injection in 0.2 ml PBS+0.025% Tween-20, or in vehicle alone. A typical dose is about 4-5 nmoles per animal per injection. Representative references for administering an α-galactosyl ceramide to mice by i.p., i.v. or p.o. routes are S. Sharif et al., Activation of natural killer T cells by alpha-galactosylceramide treatment prevents the onset and recurrence of autoimmune Type 1 diabetes, Nat. Med., Sep. 7, 2001, (9):1057-62 and K. Miyamoto et al., A synthetic glycolipid prevents autoimmune encephalomyelitis by inducing TH2 bias of natural killer T cells, Nature. Oct. 4, 2001, 413(6855):5314.

[7] = tested on: T cell antigen receptors of human NKT cells; experiment: Glycolipid human CD1d tetramer binding; conditions: normal blood specimens
human NKT cell clones = experiment: Human in vitro NKT cell assay system; type: cell-based; conditions: proliferative responses and cytokine secretion
Description: For example, DB03-4 and DB03-5 are active in stimulation of human NKT cell clones in vitro, and elicits proliferative responses and cytokine secretion when evaluated using culture systems previously established in the literature (See, e.g., Spada F M, Sugita M, Watts G F M, Koezuka Y, and Porcelli S A. Low expression but potent antigen presenting function of CD1d on monocyte lineage cells, Eur. J. Immunol., 30:3468-3477 (2000), and Spada F M, Koezuka Y, Porcelli S A, CD1d-restricted recognition of synthetic glycolipid antigens by human NK T cells. J Exp Med; 188:1529-1534 (1998), see also, Lee P T et al., J Clin Invest., 2002 September; 110(6):793-800. […] Acad. Sci. (USA), 102:3383-8 (2005)).

NOD mice = experiment: Prevention of type 1 diabetes in NOD mice; type: in vivo; conditions: i.p. once per week, 200 micrograms/kg; comparator DB01-1 (indicated as KRN7000)
Protocol: Cohorts of 6-8 female NOD mice were treated with placebo (vehicle) or DB01-1 (indicated as KRN7000), DB03-4 or DB03-5 injections once weekly beginning at 4-5 weeks of age. Treatment was discontinued after 5 injections (DB03-4) or 7 injections (DB03-5). Top graphs show incidence of glycosuria, and bottom graphs show survival in each cohort.
Given the widely held belief that selective augmentation of IL-4 production can be protective or therapeutic in the setting of many autoimmune diseases, we have initiated studies to examine the efficacy of compounds such as DB03-4 and DB03-5 in diabetes prone NOD mice. […] The results reported in FIG. 10 were obtained by treating three groups, each consisting of 9-12 female NOD mice, starting from age 5 weeks with a ceramide-like glycolipid. The indicated ceramide-like glycolipids (DB03-4, DB03-5, or KRN7000) were injected i.p. once per week in a dose of 200 micrograms/kg. Treatment was discontinued at 11 weeks of age, and the mice were monitored weekly for glucosuria (top) and death (bottom).
For experiments involving in vivo treatment of mice with the ceramide-like glycolipids, the ceramide-like glycolipids were administered by i.p. or i.v. injection in 0.2 ml PBS+0.025% Tween-20, or in vehicle alone. A typical dose is about 4-5 nmoles per animal per injection. […]

splenocyte cultures = experiment: Splenocyte cultures (DB03-6); type: cell-based
[8] = tested on: splenocytes from NZB/W F1 mice; experiment: Cytokine induction in vitro with splenocytes from NZB/W F1 mice; type: cell-based

CCCCCCCCCCCCCCCCCCCCCCCC(=O)N[C@@H](COC1OC(CO)C(O)C(O)C1O)[C@H](O)[C@H](O)CCCCCCCCCCCCCC (stereo partly shown) [DB02-1]
IL-4 levels compared with DB01-1 [1]: nearly equivalent
IFNγ levels compared with DB01-1 ([1]; all concentrations): markedly lower
CD1d-dependent proliferation [2]: stimulation of CD1d-dependent proliferation

CCCCCCCCCCCCCC[C@@H](O)[C@@H](O)[C@H](COC1OC(CO)C(O)C(O)C1O)NC(=O)C(c1ccccc1)c1ccccc1 (stereo partly shown) [YTC03-17]
potency relative to KRN7000 (IL-2 production) (NK T hybridoma DN32.D3 [3]): markedly more potent than KRN7000
potency relative to KRN7000 (IL-2 production) (NK T hybridoma DN32.D3 [4]; presented by HeLa (human CD1d) cells): presented about equally
response (IL-2 production) (NK T hybridoma DN32.D3 [5]): very little or no response at all
agonist activity on iNKT cells (iNKT cells; in vitro): strong agonist activity
in vitro activity at modulating cytokines (iNKT cells): show in vitro activity
effectiveness of compound (NK T cells): Particularly effective

CCCCCCCCCCCCCC[C@@H](O)[C@@H](O)[C@H](COC1OC(CO)C(O)C(O)C1O)NC(=O)Cc1ccc(F)cc1 (stereo partly shown) [YTC03-30]
potency greater than KRN7000 (NK T hybridoma DN32.D3 [4]; presented by HeLa cells): at least 100 fold

CCCCCCCCCCCCCCCCCCCCCCCC(=O)N[C@@H](COC1OC(CO)C(O)C(O)C1O)[C@H](O)[C@H](O)CCCCC (stereo partly shown) [OCH]
suppression of autoimmunity in EAE [6]: enhanced ability to suppress autoimmunity
IFNγ production in vivo (mice): failed to stimulate the strong production of interferon-γ
IL-4 production in vivo (mice): selective production of interleukin-4

CCCCC/C=C\C/C=C\C/C=C\C/C=C\CCCC(=O)N[C@@H](COC1OC(CO)C(O)C(O)C1O)[C@H](O)[C@H](O)CCCCCCCCCCCCCC (stereo partly shown) [DB03-5]
serum IFNγ response (C57BL/6 mice; 20 hours after single i.p. injection of 4.8 nanomoles): not seen
serum IL-4 response (C57BL/6 mice; two hours after single i.p. injection of 4.8 nanomoles): strong IL-4 response
binding of glycolipid human CD1d tetramers to human NKT cells [7]: bind strongly
cytokine bias (iNKT cells): bias towards inducing Type 2 cytokines
IL-4 induction (iNKT cells; in vitro): strong inducers of IL-4
IFNγ induction (iNKT cells; in vitro, DB03-3: in some murine strains): blunted IFNγ
in vitro activity at modulating cytokines (iNKT cells): show in vitro activity
stimulation of human NKT cell clones (human NKT cell clones): active
prevention of diabetes in NOD mice compared with KRN7000 (NOD mice): superior to KRN7000

CC/C=C\C/C=C\C/C=C\C/C=C\C/C=C\CCCC(=O)N[C@@H](COC1OC(CO)C(O)C(O)C1O)[C@H](O)[C@H](O)CCCCCCCCCCCCCC (stereo partly shown) [DB03-6]
IL-2 induction (splenocyte cultures): minimal IL-2 induction
IL-4 relative to IFNγ (splenocyte cultures): apparent enhancement of IL-4 relative to IFNγ
agonist activity (splenocyte cultures): agonist

CCCCCCCCCCCCCC[C@@H](O)[C@@H](O)[C@H](COC1OC(CO)C(O)C(O)C1O)NC(=O)Cc1ccc(OC)c(OC)c1 (stereo partly shown) [YTC03-24]
IL-4 induction relative to IFNγ [8]: enhanced IL-4 induction relative to IFNγ

CCCCCCCCCCCCCC[C@@H](O)[C@@H](O)[C@H](COC1OC(CO)C(O)C(O)C1O)NC(=O)CCCCCC (stereo partly shown) [YTC03-25]
IL-4 induction relative to IFNγ [8]: enhanced IL-4 induction relative to IFNγ
effectiveness of compound (NK T cells): Particularly effective
